≈ marks a conversion by molar mass, not a printed value. Where two headings read alike, the source gives them in different places.
How the values were obtained:
[1] = system: HCT116 MTAP-deleted cell lines; test: Cell viability assay (CellTiter-Glo, 7 days), HCT116 MTAP-deleted; format: cell-based; conditions: for Selectivity: HCT116 WT CC50 versus HCT116 MTAP^del CC50; for CC50: Homo sapiens, HCT116 MTAP-deleted; for plasma-adjusted CC50 (paCC50): paCC50 = CC50-HCT116-MTAP^del * (% free CCM/% free human plasma)
In short: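 CC50 values come from 7-day CellTiter-Glo viability measurements on cells exposed to a dose range of PRMT5 inhibitors dispensed from DMSO stocks.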

[2] = PBS solubility (kinetic solubility from DMSO stocks); format: physicochemical; conditions: 22 °C, aqueous buffer, kinetic from dmso stock; 1x PBS pH 7.4, 1.0% DMSO, 24-hour incubation at ambient temperature
Protocol: Buffer Preparation: 1×PBS, 7.4: Phosphate Buffered Saline solution 10×, PBS (Fisher Bioreagent, part number BP399-500) 50 mL was added to approximately 450 mL HPLC grade H2O. The volume of the solution was then adjusted to 500 mL for a total dilution factor of 1:10 and a final PBS concentration of 1×. The pH of the final solution was measured and found to be 7.4.
The final DMSO Concentration is 1.0% and maximum theoretical compound concentration is 100 μM (assuming stock concentration of 10 mM). The filter plate was sealed. Following 24-hour incubation at ambient temperature (20.8-24.0° C.), the samples were vacuum filtered, and the filtrates were collected in a 96 well polypropylene plate for analysis. The collection plate was sealed for analysis. Filtrates were injected into the nitrogen detector for quantification on Analiza's Automated Discovery Workstation. The results are reported here in both μM and μg/mL.
Calculation of Results: The equimolar nitrogen response of the detector is calibrated using standards which span the dynamic range of the instrument from 0.08 to 4500 μg/ml nitrogen. The filtrates were quantified with respect to this calibration curve. The calculated solubility values are corrected for background nitrogen present in the DMSO, and the media used to prepare the samples. All reported values for compounds containing adjacent nitrogen atoms in a ring structure should be increased by ˜25%. […] The solubility results presented assume that the samples were free of nitrogen containing impurities and are stable under the assay conditions.

[3] = MDR1/BCRP assay: permeability in cPgp-KO-MDCK-WT cells; format: in vitro ADME; conditions: dog, pH 7.4
Protocol: The cells were maintained in an incubator at 37° C., 90% humidity, and 5% CO2 until reaching confluence over 5 days in 96-well transwell plates. Experiments were conducted using an HBSS donor buffer (Invitrogen) containing 10 mM HEPES and 15 mM glucose, adjusted to pH 7.4. The receiver well contained HBSS buffer supplemented with 1% BSA, 10 mM HEPES, and 15 mM glucose, and the pH was adjusted to 7.4. TEER values were measured to assess membrane integrity after an initial equilibration with BSA-free transport buffer for 15 minutes. The experiment was started by adding dosing solutions containing test compounds at 1 μM. Cells were dosed on the apical (A) side or basolateral (B) side at 100 μl and 200 μl, respectively, to determine forward (A to B) and reverse (B to A) permeability. At the 2-hour time point, 50 μl samples were collected from the receiver compartment. Each compound was tested in 2 separate replicate wells for each condition. All samples were immediately collected into plates, and 50 μL of acetonitrile was added. Subsequently, 350 μl of 30:70 methanol: acetonitrile containing internal standard was added to precipitate proteins and stabilize the test compounds. To test for non-specific binding and compound instability, the total amount of the drug was quantified at the end of the experiment and compared to the material present in the original dosing solution as a percentage of the recovery. All samples were analyzed by LC-MS/MS using electrospray ionization.
The apparent permeability, Papp, and % recovery were calculated as follows: […]

[4] = Cell viability assay (CellTiter-Glo, 7 days), HCT116 WT; format: cell-based; conditions: human, HCT116 WT cells, 7 days of treatment, CTG
Protocol: Control compounds were analyzed in parallel each time for quality control. In Brief, on Day -1, a serial dilution of stock compounds in DMSO was performed using BioMek liquid handlers and dispensed using Echo acoustic dispenser into 384 well plates. Both tool compounds and sample compounds were spotted in the same plate for a dose response of PRMT5 inhibitors. Compound plates were stored as frozen until the cells were ready for seeding. […] After equilibrating the plate in room temperature, the cells were incubated for 7 days inside the sealed incubator set at 37° C. with 90% humidity and 5% CO2. On Day 7, the viability of cells was measured using a CTG assay kit (CellTitre-Glo;Promega cat no. G7573). Shortly, 40 μl per well of luminescent cell viability assay reagent were dispensed using EL460 liquid dispenser 5 μl cassette. CTG luminescence signal was measured using an EnVision plate reader (PerkinElmer) in accordance with manufacturer's instruction. […] Selectivity with * is artificially high due to limited solubility of the compound hampering accurate measurement of WT CC50.

[5] = system: Symmetric Di-methyl Arginine (SDMA) signal (PRMT5 inhibition) in HCT116 MTAP-deleted cells; test: Symmetric di-methyl arginine image-based high content screen assay (SDMA assay), HCT116 MTAP-deleted; format: cell-based; conditions: for EC50 selectivity: HCT116 WT vs HCT116 MTAP-deleted; for EC50: Homo sapiens, HCT-116, HCT116 MTAP-deleted, class symbols
In short: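 HCT116 WT and MTAP-deleted cells (800/well, RPMI 1640 + 10% FBS) treated with compound 3 days at 37 °C; formalin-fixed, stained with anti-SDMA antibody/Alexa 488 plus DAPI. Mean SDMA intensity per DAPI-defined cell imaged; EC50 from 4-parameter logistic fit.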

[6] = HCT-116, 168 h, 7 days of treatment, CTG, read-out: CC50-HCT116-MTAP^del
[7] = HCT-116, cell viability, class symbols, read-out: CC50
[8] = HCT-116, cell viability assay, class symbols, read-out: CC50

solubility at 24 h [2] | Papp A→B at 2 h, 1 µM [3] | EC50 selectivity [5] | EC50 [5] | Structure (SMILES) | Selectivity [1] | CC50 [1, 6] | CC50 [1, 7] | CC50 at 7 days [4] | plasma-adjusted CC50 (paCC50) ([1]; HCT-116) | CC50 [1, 8]
1.1 µM (≈ 0.52 µg/mL) | 12.3 ×10⁻⁶ cm/s |  |  | Nc1nc2cnc(C(=O)N3C[C@H](F)CC4Oc5cc(C(F)(F)F)ccc5[C@@H]43)cc2n2cncc12 (mixture of isomers) [Ff-113, Rac-(4-aminoimidazo[1,5-a]pyrido[3,4-e]pyrazin-8-yl)((3R,4aS,9bS)-3-fluoro-7-(trifluoromethyl)-3,4,4a,9b-tetrahydrobenzofuro[3,2-b]pyridin-1(2H)-yl)methanone] | 86 | 30 nM | < 100 nM | 2570 nM |  | 
18.6 µM (≈ 9.08 µg/mL) |  |  |  | Nc1nc2cnc(C(=O)N3CC[C@H]4C[C@@H]3c3c(F)cc(OC(F)(F)F)cc3O4)cc2n2cncc12 (single isomer, unassigned) [Ff-692] | 69 | 14 nM |  | 969 nM | 139 nM | 
< 1 µM | 7.6 ×10⁻⁶ cm/s |  |  | Nc1nc2cnc(C(=O)N3CCC[C@@H]4Oc5cc(C(F)(F)F)c(F)cc5[C@@H]43)cc2n2cncc12 [Ff-115, (4-aminoimidazo[1,5-a]pyrido[3,4-e]pyrazin-8-yl)((4aS,9bS)-8-fluoro-7-(trifluoromethyl)-3,4,4a,9b-tetrahydrobenzofuro[3,2-b]pyridin-1(2H)-yl)methanone] | 48 | 10 nM | < 100 nM | 478 nM | 202 nM | 
< 1 µM | 17.8 ×10⁻⁶ cm/s |  |  | Nc1nc2cc(F)c(C(=O)N3CCO[C@@H]4Cc5cc(OC(F)F)c(F)cc5[C@@H]43)cc2n2cncc12 [Ff-174, (4-amino-7-fluoroimidazo[1,5-a]quinoxalin-8-yl)((4aS,9aR)-7-(difluoromethoxy)-6-fluoro-2,3,9,9a-tetrahydroindeno[2,1-b][1,4]oxazin-4(4aH)-yl)methanone] | 63 | 36 nM | < 100 nM | 2280 nM |  | 
 |  | 47 | ≤ 1 nM | Cc1cc2nc(N)c3cncn3c2cc1C(=O)N1CCC[C@@H]2Oc3cc(C(F)(F)F)ccc3[C@@H]21 [Ff-368, (4-amino-7-methylimidazo[1,5-a]quinoxalin-8-yl)((4aS,9bS)-7-(trifluoromethyl)-3,4,4a,9b-tetrahydrobenzofuro[3,2-b]pyridin-1(2H)-yl)methanone] | 59 | 3 nM |  | 178 nM |  | < 100 nM
18.3 µM (≈ 9.69 µg/mL) |  |  |  | Cc1ncn2c1c(N)nc1cc(F)c(C(=O)N3CCCC[C@@H]3c3ccc(S(F)(F)(F)(F)F)cc3)cc12 [Ff-402, (R)-(4-amino-7-fluoro-3-methylimidazo[1,5-a]quinoxalin-8-yl)(2-(4-(pentafluoro-16-sulfaneyl)phenyl)piperidin-1-yl)methanone] | 84 | 30 nM |  | 2520 nM | 40 nM | < 100 nM
1.2 µM (≈ 0.566 µg/mL) |  |  |  | Nc1nc2cc(F)c(C(=O)N3CCC[C@@H]4Oc5ccc(C(F)(F)F)cc5[C@@H]43)cc2n2cncc12 [Ff-620, (4-amino-7-fluoroimidazo[1,5-a]quinoxalin-8-yl)((4aS,9bS)-8-(trifluoromethyl)-3,4,4a,9b-tetrahydrobenzofuro[3,2-b]pyridin-1(2H)-yl)methanone] | 50 | 31 nM |  | 1550 nM |  | < 100 nM
 |  |  |  | Cc1ncn2c1c(N)nc1cnc(C(=O)N3CC[C@H]4C[C@@H]3c3ccc(OC(F)(F)F)cc3O4)cc12 [Ff-632, (4-amino-3-methylimidazo[1,5-a]pyrido[3,4-e]pyrazin-8-yl)((2S,6R)-9-(trifluoromethoxy)-3,4-dihydro-2H-2,6-methanobenzo[b][1,5]oxazocin-5(6H)-yl)methanone] | 93 | 18 nM |  | 1680 nM | 270 nM | < 100 nM
 |  | 82 | 1 to 5 nM | Cc1ncn2c1c(N)nc1cnc(C(=O)N3CC[C@H]4C[C@@H]3c3ccc(C(F)(F)F)c(F)c3O4)cc12 [Ff-633, (4-amino-3-methylimidazo[1,5-a]pyrido[3,4-e]pyrazin-8-yl)((2S,6R)-10-fluoro-9-(trifluoromethyl)-3,4-dihydro-2H-2,6-methanobenzo[b][1,5]oxazocin-5(6H)-yl)methanone] | 104 | 20 nM |  | 2080 nM |  | < 100 nM
 |  | 319 | 1 to 5 nM | C=Cc1cc2nc(N)c3cncn3c2cc1C(=O)N(C)[C@@H]1COc2cc(C(F)(F)F)ccc21 [Fg-51, (S)-4-amino-N-methyl-N-(6-(trifluoromethyl)-2,3-dihydrobenzofuran-3-yl)-7-vinylimidazo[1,5-a]quinoxaline-8-carboxamide] |  |  |  |  |  | < 100 nM
 |  | 69 | ≤ 1 nM | C[C@H]1C[C@@H]2Oc3cc(OC(F)(F)F)ccc3[C@@H]2N(C(=O)c2cc3c(cn2)nc(N)c2cncn23)C1 [Fg-54, (4-aminoimidazo[1,5-a]pyrido[3,4-e]pyrazin-8-yl)((3S,4aS,9bS)-3-methyl-7-(trifluoromethoxy)-3,4,4a,9b-tetrahydrobenzofuro[3,2-b]pyridin-1(2H)-yl)methanone] |  |  |  |  |  | < 100 nM
 |  | 208 | ≤ 1 nM | [2H]C1([2H])CC[C@@H]2Oc3cc(OC(F)(F)F)ccc3[C@@H]2N1C(=O)c1cc2c(cn1)nc(N)c1cncn12 [Fg-59, (4-aminoimidazo[1,5-a]pyrido[3,4-e]pyrazin-8-yl)((4aS,9bS)-7-(trifluoromethoxy)-3,4,4a,9b-tetrahydrobenzofuro[3,2-b]pyridin-1(2H)-yl-2,2-d2)methanone] |  |  |  |  |  | < 100 nM
< 1 µM |  |  |  | Nc1nc2cc(F)c(C(=O)N3CCC[C@@H]4Oc5cc(OC(F)(F)F)cc(F)c5[C@@H]43)cc2n2cncc12 [Fg-68, (4-amino-7-fluoroimidazo[1,5-a]quinoxalin-8-yl)((4aS,9bS)-9-fluoro-7-(trifluoromethoxy)-3,4,4a,9b-tetrahydrobenzofuro[3,2-b]pyridin-1(2H)-yl)methanone] | 89 | 8 nM |  | 708 nM | 130 nM | 

Reference: US12448388B2, “PRMT5 inhibitors and uses thereof” (Gilead Sciences, Inc., priority 2023, dated 2025)
